Some test systems named below: HS 578T breast; PC-3 prostate; BT-549 breast; MCF7 breast; T-47D breast; MDA-MB-231 breast; XF 498 CNS; LXFL 529 NSCLC; DMS 273 small cell lung; M19-MEL melanoma; SNB-78 CNS.
What all share (assay): inhibition of tumour cell growth, NCI panel, 48 h

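Grown in 96-well plates, cells were treated for 48 hours with each compound at five concentrations. Insufficient inhibition: endpoint recorded as highest concentration tested. The concentration for 50% growth inhibition is given as GI50. The concentration for full growth arrest is given as TGI.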

Consider `Cn1c(N2NC(=O)C(N=Nc3ccc(S(N)(=O)=O)cc3)C2=O)nc(-c2ccco2)c(C#N)c1=O` (stereo not drawn), for which the GI50 with HS 578T breast is 9.85 µM; in the test with PC-3 prostate, 23.2 µM; in the test with BT-549 breast it was 8.67 µM; in the test with MCF7 breast, 14.7 µM; in the test with T-47D breast, 7.58 µM; in the test on MDA-MB-231 breast it was 28.6 µM. The TGI in the test with HS 578T breast is 38.6 µM; in the test on PC-3 prostate it was above 50 µM; in the test on BT-549 breast, 40.6 µM; in the test on MCF7 breast, above 50 µM; in the test with T-47D breast, 19.7 µM; with MDA-MB-231 breast it was above 50 µM.
With `CC1(Cl)C(=O)NC(=O)N(C2CC(N=[N+]=[N-])C(CO)O2)C1N=[N+]=[N-]` (stereo not drawn), the TGI with XF 498 CNS, with LXFL 529 NSCLC, in the test on DMS 273 small cell lung and in the test with M19-MEL melanoma was above 100 µM throughout.
Consider `Cc1nn(CN2CCN(C)CC2)c(=S)n1/N=C/c1cccc2ccccc12`, for which the GI50 with HS 578T breast is 26.8 µM; in the test with PC-3 prostate, 22.1 µM; in the test on BT-549 breast it was 21.1 µM; in the test on MCF7 breast it was 20.1 µM; in the test on T-47D breast, 17.6 µM; in the test on MDA-MB-231 breast, 19.3 µM. Besides, the TGI with HS 578T breast was determined as 74.8 µM; in the test on PC-3 prostate it was 64 µM; in the test on BT-549 breast, 47.3 µM; in the test with MCF7 breast, 50.9 µM; in the test on T-47D breast, 48.2 µM; in the test with MDA-MB-231 breast, 44.4 µM.
As for `COC(=O)C(/C(=N/NC(N)=O)C(=O)Nc1ccc(C)cc1)c1nc2ccc([N+](=O)[O-])cc2[nH]c1=O` (stereo not drawn), the TGI in the test with HS 578T breast, in the test on PC-3 prostate, with BT-549 breast, in the test with MCF7 breast, in the test with T-47D breast and with MDA-MB-231 breast was above 100 µM throughout.
As for `COc1cccc(/C=N/NC(=O)c2ccccc2Nc2ccnc(C(F)(F)F)c2)c1O`, the GI50 was 1.08 µM with HS 578T breast; 1.47 µM in the test on PC-3 prostate; 0.567 µM in the test on BT-549 breast; 0.313 µM in the test on MCF7 breast; 0.498 µM in the test with T-47D breast; 0.423 µM in the test on MDA-MB-231 breast. The TGI in the test with HS 578T breast is above 46.7 µM; with PC-3 prostate, above 33.1 µM; in the test with BT-549 breast it was 54.3 µM; in the test with MCF7 breast, 29.5 µM; with T-47D breast, 38.8 µM; in the test with MDA-MB-231 breast, above 100 µM.
With `Cc1c(C(=O)N/N=C/c2ccc(Cl)cc2)nnn1-c1ccnc2c(C(F)(F)F)cccc12`, the GI50 was 3.62 µM in the test with HS 578T breast; 3.04 µM in the test with PC-3 prostate; 22.9 µM in the test on BT-549 breast; 2.27 µM in the test with MCF7 breast; 7.59 µM in the test with T-47D breast; 2.17 µM with MDA-MB-231 breast. For the same compound, the TGI in the test on HS 578T breast stood at 12 µM; in the test with PC-3 prostate, 11.3 µM; with BT-549 breast it was 52.3 µM; in the test with MCF7 breast, 5.61 µM; in the test on T-47D breast, 28.9 µM; in the test with MDA-MB-231 breast, 6.08 µM.
Regarding `CSc1cc(N=Nc2nc3ccccc3s2)c2ccccc2c1O`, the GI50 is 20.9 µM in the test on HS 578T breast; 13.4 µM in the test on PC-3 prostate; 6.28 µM with BT-549 breast; 9.51 µM in the test with MCF7 breast; 3.64 µM in the test with T-47D breast; 6.97 µM with MDA-MB-231 breast. The TGI was above 50 µM with HS 578T breast; above 50 µM in the test with PC-3 prostate; 14 µM in the test with BT-549 breast; 28.8 µM with MCF7 breast; above 50 µM in the test with T-47D breast; 14.6 µM with MDA-MB-231 breast.
With `O=C1NNC=Nc2ccc(cc2)S(=O)(=O)c2ccc(cc2)N=CNNC1=O`, the TGI in the test on HS 578T breast, in the test on PC-3 prostate, with BT-549 breast, with MCF7 breast, in the test with T-47D breast and with MDA-MB-231 breast was above 100 µM in each case.
In the case of `O=C(Nc1ccc(N2CCNCC2)cc1)c1[nH]ncc1Nc1cc(Oc2ccccc2)ncn1`, the GI50 with HS 578T breast was 3.06 µM; with PC-3 prostate it was 1.47 µM; in the test on BT-549 breast, 1.84 µM; in the test with MCF7 breast, 1.28 µM; with T-47D breast, 2.46 µM; with MDA-MB-231 breast, 2.03 µM. In addition, the TGI in the test with HS 578T breast is 14.8 µM; with PC-3 prostate it was 3.2 µM; in the test with BT-549 breast it was 3.58 µM; with MCF7 breast, 4.07 µM; in the test on T-47D breast it was 8.09 µM; in the test on MDA-MB-231 breast it was 5.72 µM.
For the compound `O=C1CNCCCN2CCN(CCCNCC(=O)Nc3ccc(cc3)S(=O)(=O)c3ccc(cc3)NC(=O)CNCCCN3CCN(CCCNCC(=O)Nc4ccc(cc4)S(=O)(=O)c4ccc(cc4)N1)CC3)CC2`, the TGI with HS 578T breast was above 69.4 µM; in the test on PC-3 prostate, above 100 µM; in the test on BT-549 breast, 58.4 µM; with MCF7 breast, above 100 µM; in the test with T-47D breast it was 97.2 µM; with MDA-MB-231 breast, 52.1 µM.
In the case of `O=C(O)Cn1ccc(=O)c2ccc([N+](=O)[O-])cc21`, the TGI in the test with HS 578T breast is above 100 µM; in the test on PC-3 prostate, above 100 µM; with BT-549 breast, above 100 µM; with MCF7 breast it was above 100 µM; in the test with T-47D breast, above 100 µM; in the test on MDA-MB-231 breast, 78.5 µM.
Regarding `Cc1cc(I)cc(CNCCCN2CCSCC2)c1O`, the GI50 is 12.1 µM in the test with HS 578T breast; 17.7 µM in the test with PC-3 prostate; 5.6 µM in the test with BT-549 breast; 15.1 µM with MCF7 breast; 16 µM with T-47D breast; 18.2 µM in the test with MDA-MB-231 breast. In addition, the TGI in the test on HS 578T breast stood at 26.6 µM; in the test with PC-3 prostate it was 36.3 µM; in the test on BT-549 breast it was 20.2 µM; with MCF7 breast it was 31.6 µM; in the test with T-47D breast it was 40.6 µM; in the test with MDA-MB-231 breast, 41.8 µM.
In the case of `Cc1ccc2c(c1)C(=O)/C(=C/c1ncc([N+](=O)[O-])n1C)O2`, the GI50 in the test on HS 578T breast was 1.94 µM; in the test with PC-3 prostate, 2.35 µM; in the test on BT-549 breast it was 1.95 µM; in the test on MCF7 breast, 0.534 µM; with T-47D breast, 20.4 µM; with MDA-MB-231 breast, 1.56 µM. The TGI with HS 578T breast was above 23.2 µM; in the test on PC-3 prostate it was above 24.9 µM; in the test with BT-549 breast, 5.48 µM; with MCF7 breast, 9.88 µM; in the test on T-47D breast, 76.5 µM; in the test with MDA-MB-231 breast it was 6.92 µM.
As to `O=NN(Cc1ccc(Cl)cc1)C(C(=O)O)c1ccccc1` (stereo not drawn), the TGI with HS 578T breast, in the test with PC-3 prostate, with BT-549 breast, in the test on MCF7 breast, in the test with T-47D breast and with MDA-MB-231 breast was above 100 µM throughout.
In the case of `CC1=C(C(=O)Nc2ccc3[nH]ncc3c2)C(c2ccc3ccccc3c2)CC(=O)N1` (stereo not drawn), the GI50 in the test on HS 578T breast is 0.873 µM; in the test with PC-3 prostate, above 25 µM; in the test on BT-549 breast it was 4.11 µM; with MCF7 breast, 24.4 µM; with T-47D breast it was above 25 µM; with MDA-MB-231 breast, 11.7 µM. The TGI with HS 578T breast, in the test on PC-3 prostate, with BT-549 breast, in the test on MCF7 breast, in the test on T-47D breast and in the test with MDA-MB-231 breast was above 25 µM throughout.
Take `CN1CCN(Cc2ccc(NC(=O)c3cncc(C#Cc4cnc(N)c5ccc(C#N)cc45)c3)cc2C(F)(F)F)CC1`: the GI50 with HS 578T breast was 0.0217 µM; in the test with PC-3 prostate, 0.357 µM; in the test with BT-549 breast it was 0.729 µM; in the test with MCF7 breast it was 0.688 µM; in the test with T-47D breast, 0.247 µM; in the test on MDA-MB-231 breast, 0.037 µM. Further, the TGI with HS 578T breast amounted to 0.406 µM; in the test on PC-3 prostate, 1.37 µM; with BT-549 breast, 10.8 µM; in the test with MCF7 breast, 1.86 µM; in the test with T-47D breast, 2.03 µM; with MDA-MB-231 breast, 0.228 µM.
As for `COc1cc(OC)cc(-c2ccc(-c3ccc(C(=N)N)o3)o2)c1`, the GI50 in the test with HS 578T breast is 8.12 µM; with PC-3 prostate it was 4.77 µM; with BT-549 breast, 6.91 µM; in the test on MCF7 breast, 1.8 µM; in the test on T-47D breast it was 2.08 µM; in the test on MDA-MB-231 breast it was 2.35 µM. The TGI came to 27.3 µM in the test with HS 578T breast; 17.5 µM in the test with PC-3 prostate; 20.1 µM in the test with BT-549 breast; 4.31 µM in the test with MCF7 breast; 5.04 µM with T-47D breast; 4.78 µM in the test with MDA-MB-231 breast.
`N#Cc1ccc(C#Cc2ccccc2C#CCCCCO)cc1`: the GI50 was 25.7 µM in the test on HS 578T breast; 15.6 µM in the test on PC-3 prostate; 14.7 µM in the test with BT-549 breast; 22.1 µM in the test with MCF7 breast; 13 µM in the test with T-47D breast; 16.7 µM in the test with MDA-MB-231 breast. Moreover, the TGI in the test with HS 578T breast came out at 64.2 µM; in the test on PC-3 prostate, 28.9 µM; in the test with BT-549 breast, 29.3 µM; with MCF7 breast, 45.6 µM; in the test with T-47D breast it was 28 µM; in the test with MDA-MB-231 breast, 31.3 µM.
As to `O=C1C=CC(=Nc2ccc3c(c2)C(Br)c2ccccc2-3)O1` (stereo not drawn), the TGI in the test with LXFL 529 NSCLC, in the test with SNB-78 CNS and in the test on M19-MEL melanoma was above 100 µM each time.
Turning to `C[C@]12CC[C@H](O)CC1=CC[C@@H]1[C@@H]2CC[C@]2(C)C(c3cccnc3)=CC[C@@H]12`, the GI50 in the test with HS 578T breast is 7.13 µM; in the test on PC-3 prostate, above 100 µM; with BT-549 breast, 21.7 µM; in the test with MCF7 breast it was above 100 µM; in the test on T-47D breast, above 100 µM; in the test with MDA-MB-231 breast, above 27.1 µM. Moreover, the TGI in the test with HS 578T breast, in the test on PC-3 prostate, with BT-549 breast, with MCF7 breast, in the test with T-47D breast and with MDA-MB-231 breast was above 100 µM in each case.

(Values after PubChem BioAssay (NCI).)
